# Source: patent publication US20250316381A1, “Assessment of Relative Quantitative Effect of Somatic Point Mutations at the Individual Tumor Level for Prioritization” (Hadasit Medical Research Services and Development Ltd., priority 2022, published 2025)
# Columns and labels:
# human cancer cell lines [1] = assay: GDSC2 IC50 drug screening of cancer cell lines, divided by cancer gene TVA sub-groups; assay type: cell-based; conditions: except for two cell lines in "Strong Drivers" group
# Text: Bulk data of “IC50s Drug Screening” was obtained from Genomics of Drug Sensitivity in Cancer website. Bulk mutation data for cell lines was obtained from Cell Model Passports website.
# The analysis was focused on pairs of drugs and genetic alterations that met the following criteria in GDSC's database: (i) drug response associated with a cancer gene variant (ii) at least 50 cell lines harboring the cancer gene alteration (iii) effect size above 0.7 (above 0.5 indicates a moderate effect size and above 1 indicates a large effect size) (iv) drug-gene association is statistically significant (false discovery rate (FDR) p-value<0.1) and (v) the drug effect on the mutated protein of associated pathways can explain the association.
# For comparison of response to drugs between genes variants' TVA values, samples were binned according to their gene variant TVA score and according to appearance in the drivers' binomial catalogue. Non-drivers were defined as variants absent from the binomial catalogue with TVA≤1.5. This larger TVA value for variants not in the catalog enlarges the number of variants in the non-driver group. […]
# Rare pathogenic variants are becoming important in the inter-individual variability in drug response. […] Genomic features and drug response associations were analyzed from GDCS's analysis of variance model that met certain criteria (see Materials and Methods). […]
# human cancer cell lines [2] = conditions: GDSC2; BRAF variants, "Very Strong Drivers" group (includes V600E class I variant) versus all other groups; cited from earlier work
Compound,association of TVA's sub-groups of BRAF variants with drug response (human cancer cell lines [1]),IC50 of cancer cell lines (human cancer cell lines [2])
CC(C)(C)c1nc(-c2cccc(NS(=O)(=O)c3c(F)cccc3F)c2F)c(-c2ccnc(N)n2)s1 [Dabrafenib],associated with drug response,–
CCCS(=O)(=O)Nc1ccc(F)c(C(=O)c2c[nH]c3ncc(Cl)cc23)c1F [PLX4720],–,distinct low IC50
